Measurements reported in patent publication US7307063B2, “Melanocortin metallopeptides for treatment of sexual dysfunction” (Palatin Technologies, Inc., priority 2001, dated 2007).
Non-standard residues stand in square brackets, D forms with d. No end group written: not given here. *: point of attachment. 1Nal = N[C@@H](Cc1cccc2ccccc12)C(=O)O; Hydrocinnamoyl = O=C(CCc1ccccc1)*; Nle = CCCC[C@H](N)C(=O)O; Ac5c = NC1(C(=O)O)CCCC1

Legend:
MC1-R = molecular target: T1, MC1-R (Mus musculus, UniProt Q01727); assay: Competitive binding assay: inhibition of 125I-NDP-α-MSH binding to membranes from B16-F10 mouse melanoma cells
T1 construct: MC1-R membranes were isolated from B16—F10 mouse melanoma cells; endogenous in cells; host or cells: B16-F10 mouse melanoma cells
In short: (§1)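 Membranes were incubated with 125I-NDP-α-MSH and a chosen concentration of Re-complexed peptide. Bound radioactivity was then measured, with 1 μM α-MSH defining complete inhibition. Finally, cpm were normalized against specific binding to yield percent inhibition.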

MC4-R [1] = molecular target: T2, MC4-R (Homo sapiens, UniProt P32245); assay: Competitive binding assay: inhibition of 125I-NDP-α-MSH binding to HEK-293 membranes with cloned human receptor subtype 4
T2 construct: expressed in transfected cells; host or cells: HEK-293
In short: as §1

MC4-R [2] = molecular target: T2, MC4-R; assay: Functional activity assay: intracellular cAMP in HEK-293 cells expressing MC4-R; format: cell-based; settings: Re-complexed peptide
Method: Rhenium-complexed metallopeptides were prepared, with functional evaluation of peptides at MC1-R and MC4-R performed by measuring the accumulation of intracellular cAMP in HEK-293 cells expressing MC4-R or B16-F10 mouse melanoma cells expressing MC1-R. Antagonistic activity was determined by measuring the inhibition of α-MSH-induced cAMP levels following exposure to peptide. Cells, suspended in Earle's Balanced Salt Solution containing 10 mM HEPES, pH 7.5, 5 mM MgCl2, 1 mM glutamine, 0.1% albumin and 0.6 mM 3-isobutyl-1-methyl-xanthine, a phosphodiesterase inhibitor, were plated in 96 well plates at a density of 0.5×10^5 cells per well. Cells were incubated with the test peptides in the presence or absence of α-MSH for 1 hour at 37° C. cAMP levels were measured by EIA (Amersham) in the cell lysates. Data analysis and EC50 values were determined using nonlinear regression analysis with Prism Graph-Pad software.

Male Sprague-Dawley rats [3] = assay: Penile erection behavior dose response animal studies; format: in vivo, rat
Method: For behavioral experiments test solutions of rhenium-complexed metallopeptides were freshly prepared in DMSO and diluted in saline. Male Sprague-Dawley rats (Taconic) weighing 200-250 g were kept on a 12 hour on/off light cycle with food and water ad libitum. All behavioral studies were performed between 10 a.m. and 5 p.m. Groups of 3-10 rats were treated with the rhenium-complexed metallopeptides at a variety of doses via intravenous (IV) injection. In a second experimental paradigm, rats were treated a selected compound intranasally (IN) using a micropipet to deliver 25 μl of solution into one nostril. Immediately after treatment, rats were placed into individual Lucite cages (27 cm long, 16 cm wide and 25 cm high) for behavioral observation.

Male Sprague-Dawley rats [4] = assay: Combination penile erection behavior studies: antagonist IV before IN agonist; format: in vivo, rat;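 as to Mean Penile Erections/Rat: Erections counted over 30 min observation after IN dosing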;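 as to Percent with Penile Erections: Erections counted over 30 min observation after IN dosing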
Method: Conditions were as in Example 3 except as noted. Groups of 5-6 rats received an IV dose of either placebo or antagonist 5 minutes prior to an IN dose of either placebo or agonist. Two antagonists were used: ReO[Heptanoyl-Ser(Bzl)-D-Nal 2′-Arg-Trp-Cys-NH2] and SHU9119 (Hruby V J, Lu D, Sharma S D, et al. J Med Chem 38:3454-3461 (1995)), Ac-Nle-cyclo(-Asp-His-D-Nal 2′-Arg-Trp-Lys)-NH2. The agonist used was Ac-Nle-cyclo(-Asp-His-D-Phe-Arg-Trp-Lys)-OH. Immediately after IN treatment, rats were placed into individual Lucite cages for observation. […] In combination studies, the antagonist was dosed IV 5 minutes prior to a 50 μg/kg IN dose of Ac-Nle-cyclo(-Asp-His-D-Phe-Arg-Trp-Lys)-OH.
These studies were conducted as described above in Example 4 with metallopeptide antagonists administered IV five minutes before IN administration of 50 μg/kg Ac-Nle-cyclo(-Asp-His-D-Phe-Arg-Trp-Lys)-OH. […] The potency of these antagonists also correlated with their relative binding affinities in the in vitro binding assays.

Male Sprague-Dawley rats [5] = assay: as above; format: in vivo, rat; settings: effect induced by 50 µg/kg intranasal Ac-Nle-cyclo(-Asp-His-D-Phe-Arg-Trp-Lys)-OH
hMC3-R = molecular target: T3, hMC3-R (Homo sapiens, UniProt P41968); assay: Competitive binding assay: inhibition of 125I-NDP-α-MSH binding to HEK-293 membranes with cloned human receptor subtype 3; settings: Table 1; 1 μM Re-complexed peptide
T3 construct: expressed in transfected cells; host or cells: HEK-293
Method: Rhenium-complexed metallopeptides of the formulas given in Table 1 were prepared, with the metallopeptides complexed with rhenium using the rhenium transfer agent ReOCl3(PPh3)2 in the presence of 1,8-Diazabicyclo[5,4,0] undec-7-ene as a base, as disclosed in International Application PCT/US00/16396, filed Jun. 14, 2000, Melanocortin Metallopeptide Constructs, Combinatorial Libraries and Applications, incorporated by reference herein. Affinities of compounds were measured using membranes from HEK-293 cells containing cloned human melanocortin receptor subtypes 3, 4 and 5. MC1-R membranes were isolated from B16—F10 mouse melanoma cells. The assay tube also contained a chosen concentration of the test peptide of this invention, complexed to a rhenium metal ion as indicated, for determining its efficacy in inhibiting the binding of ^125I-NDP-α-MSH to its receptor. Non-specific binding was measured by complete inhibition of binding of ^125I-NDP-α-MSH in the assay with the presence of 1 μM α-MSH. 100% specific binding was defined as the difference in radioactivity (cpm) bound to cell membranes in the absence and presence of 1 μM α-MSH. The cpm obtained in presence of test compounds were normalized with respect to 100% specific binding to determine the percent inhibition of ^125I-NDP-α-MSH binding.

hMC5-R = molecular target: T4, hMC5-R (Homo sapiens, UniProt P33032); assay: Competitive binding assay: inhibition of 125I-NDP-α-MSH binding to HEK-293 membranes with cloned human receptor subtype 5
T4 construct: expressed in transfected cells; host or cells: HEK-293
In short: as §1

hMC2-R = molecular target: T5, hMC2-R (Homo sapiens, UniProt P41968); assay: Competitive binding assay of additional compounds, Table 6 hMC2-R; settings: 1 μM, mean of triplicate
T5 construct: expressed in transfected cells; host or cells: HEK-293

[6] = Table 1, 1 μM Re-complexed peptide
[7] = IV 50 μg/kg, 30 min observation
[8] = combination: antagonist 5 μg/kg IV 5 min prior to 50 μg/kg IN Ac-Nle-cyclo(-Asp-His-D-Phe-Arg-Trp-Lys)-OH
[9] = agonist alone 50 μg/kg IN, arm of the ReO[Heptanoyl-Ser(Bzl)-D-Nal 2′-Arg-Trp-Cys-NH2] study
[10] = agonist alone 50 μg/kg IN, arm of the SHU9119 study
[11] = Table 6, 1 μM, mean of triplicate

T2 sequence (P32245 whole entry): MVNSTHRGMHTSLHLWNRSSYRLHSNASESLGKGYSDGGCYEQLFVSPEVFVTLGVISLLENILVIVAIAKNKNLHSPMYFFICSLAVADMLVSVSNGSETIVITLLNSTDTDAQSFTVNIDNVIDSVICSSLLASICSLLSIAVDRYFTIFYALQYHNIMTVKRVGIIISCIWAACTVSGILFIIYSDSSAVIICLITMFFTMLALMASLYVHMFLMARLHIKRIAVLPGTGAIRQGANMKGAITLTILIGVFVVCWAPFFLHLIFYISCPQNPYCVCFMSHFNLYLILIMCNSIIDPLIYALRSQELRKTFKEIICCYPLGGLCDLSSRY
T1 sequence (Q01727 whole entry): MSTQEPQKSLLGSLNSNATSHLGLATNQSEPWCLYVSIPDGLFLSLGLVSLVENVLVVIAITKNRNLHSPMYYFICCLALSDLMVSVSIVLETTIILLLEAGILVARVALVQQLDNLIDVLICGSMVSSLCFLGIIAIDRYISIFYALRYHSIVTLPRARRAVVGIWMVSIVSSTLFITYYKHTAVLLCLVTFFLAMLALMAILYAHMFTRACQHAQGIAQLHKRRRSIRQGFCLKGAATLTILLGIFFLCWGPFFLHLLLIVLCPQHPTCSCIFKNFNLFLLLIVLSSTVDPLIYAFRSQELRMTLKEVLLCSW
T4 sequence (P33032 whole entry): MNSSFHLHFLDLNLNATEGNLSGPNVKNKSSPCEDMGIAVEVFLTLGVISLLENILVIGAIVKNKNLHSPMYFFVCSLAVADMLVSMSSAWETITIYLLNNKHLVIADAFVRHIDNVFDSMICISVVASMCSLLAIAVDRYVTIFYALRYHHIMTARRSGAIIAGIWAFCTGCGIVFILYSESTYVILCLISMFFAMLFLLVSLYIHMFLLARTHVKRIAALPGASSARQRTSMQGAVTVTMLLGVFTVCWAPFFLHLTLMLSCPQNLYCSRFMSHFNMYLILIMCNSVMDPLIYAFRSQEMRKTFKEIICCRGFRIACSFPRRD
T5 sequence (P41968 whole entry): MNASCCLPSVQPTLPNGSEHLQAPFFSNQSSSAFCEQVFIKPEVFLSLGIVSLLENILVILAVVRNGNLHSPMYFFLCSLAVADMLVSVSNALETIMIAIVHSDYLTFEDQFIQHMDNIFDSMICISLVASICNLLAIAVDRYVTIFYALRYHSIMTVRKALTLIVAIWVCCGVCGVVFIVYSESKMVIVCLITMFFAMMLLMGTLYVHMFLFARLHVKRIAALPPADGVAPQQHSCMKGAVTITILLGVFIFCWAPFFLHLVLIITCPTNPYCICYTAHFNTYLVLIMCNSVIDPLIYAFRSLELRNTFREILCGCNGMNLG
T3 sequence (P41968 whole entry): as above

Row | % Inhibition of Binding MC1-R (MC1-R; [11]) [%] | % Inhibition of Binding hMC5-R (hMC5-R; [11]) [%] | % Inhibition of Binding hMC4-R (MC4-R [1]; [11]) [%] | % Inhibition of Binding hMC2-R (hMC2-R) [%] | Substance | other results
1 |  |  |  |  | Ac-Nle-Ala-His-D-Phe(3′-Cl)-Arg-Trp-Cys-Trp-NH2 | % Inhibition of Binding MC1-R (MC1-R; [6]): 101%; % Inhibition of Binding hMC4-R (MC4-R [1]; [6]): 100%; Functional activity at MC4-R (cAMP accumulation; inhibition of α-MSH-induced cAMP) (MC4-R [2]): MC4-R agonists; Mean Penile Erections/Rat (Male Sprague-Dawley rats [3]; [7]): 0.5
2 |  |  |  |  | Ac-Nle-cyclo(-Asp-His-D-Nal 2′-Arg-Trp-Lys)-NH2 | Mean Penile Erections/Rat (Male Sprague-Dawley rats [4]; antagonist alone, 5 μg/kg IV): 0; Percent with Penile Erections (Male Sprague-Dawley rats [4]; antagonist alone, 5 μg/kg IV): 0%; Mean Penile Erections/Rat (Male Sprague-Dawley rats [4]; [8]): 0; Percent with Penile Erections (Male Sprague-Dawley rats [4]; [8]): 0%; Effect on erectile behavior induced by Ac-Nle-cyclo(-Asp-His-D-Phe-Arg-Trp-Lys)-OH, in words (Male Sprague-Dawley rats [4]; rats, antagonist IV before IN agonist): blocked
3 |  |  |  |  | D-(N-Bzl)Nal 2′-Arg-Trp-Cys-NH2 | Percent PE Inhibition (Male Sprague-Dawley rats [5]; antagonist 100 μg/kg IV): 14.28%; Percent PE Inhibition (Male Sprague-Dawley rats [5]; antagonist 150 μg/kg IV): 100%; % Inhibition of Binding hMC3-R (hMC3-R): 51%; % Inhibition of Binding MC1-R (MC1-R; [6]): 34%; % Inhibition of Binding hMC5-R (hMC5-R; [6]): 95%; % Inhibition of Binding hMC4-R (MC4-R [1]; [6]): 99%; Functional activity at MC4-R (cAMP accumulation; inhibition of α-MSH-induced cAMP) (MC4-R [2]): MC4-R antagonists; Mean Penile Erections/Rat (Male Sprague-Dawley rats [3]; IV 150 μg/kg, 30 min observation): 0; Induction of penile erections (PEs) in rat model, in words (Male Sprague-Dawley rats [3]; rats, IV): inactive in inducing PEs
4 |  |  |  |  | Ac-Nle-cyclo(-Asp-His-D-Phe-Arg-Trp-Lys)-OH | Mean Penile Erections/Rat (Male Sprague-Dawley rats [4]; [9]): 1.2 ± 0.3; Percent with Penile Erections (Male Sprague-Dawley rats [4]; [9]): 83%; Mean Penile Erections/Rat (Male Sprague-Dawley rats [4]; [10]): 1.6 ± 0.2; Percent with Penile Erections (Male Sprague-Dawley rats [4]; [10]): 100%
5 | 6 | 83 | 92 | 58 | NH2(CH2)6CO-Ser(Bzl)-D-Nal 2′-Arg-D-Trp-Cys-NH2 | Functional activity at MC4-R (cAMP accumulation; inhibition of α-MSH-induced cAMP) (MC4-R [2]): MC4-R antagonists
6 | 91 | 89 | 92 | 48 | 3′-Br Phenyl acetyl-Arg-Arg-D-Phe(4′-Cl)-Cys-Trp-NH2 | % Inhibition of Binding MC1-R (MC1-R; [6]): 97%; % Inhibition of Binding hMC4-R (MC4-R [1]; [6]): 100%; Functional activity at MC4-R (cAMP accumulation; inhibition of α-MSH-induced cAMP) (MC4-R [2]): MC4-R agonists; Mean Penile Erections/Rat (Male Sprague-Dawley rats [3]; [7]): 0.5
7 |  |  |  |  | Ac-Nle-Ala-His-D-Phe-Arg-Trp-Cys-NH2 ({Ac-Nle-Ala-H2N}-[dF]RWC-NH2; also: ReO complex) | % Inhibition of Binding hMC3-R (hMC3-R): 70%; % Inhibition of Binding MC1-R (MC1-R; [6]): 91%; % Inhibition of Binding hMC5-R (hMC5-R; [6]): 93%; % Inhibition of Binding hMC4-R (MC4-R [1]; [6]): 89%; Functional activity at MC4-R (cAMP accumulation; inhibition of α-MSH-induced cAMP) (MC4-R [2]): MC4-R agonists; % with Penile Erections (Male Sprague-Dawley rats [3]; IN 10 μg/kg, 10 rats): 70%; Mean Penile Erections/Rat (Male Sprague-Dawley rats [3]; IN 10 μg/kg, 10 rats): 0.9 ± 0.2; Mean Penile Erections/Rat (Male Sprague-Dawley rats [3]; IV 10 μg/kg, 30 min observation): 0.25; Mean Penile Erections/Rat (Male Sprague-Dawley rats [3]; IV 30 μg/kg, 30 min observation): 0.75; Mean Penile Erections/Rat (Male Sprague-Dawley rats [3]; [7]): 1.0
8 | 27 | 69 | 28 | 0 | Ser(Bzl)-D-Phe-Arg-Trp-Cys-NH2 ({Ser(Bzl)}-[dF]RWC-NH2; also: metal complex) | 
9 | 5 | 0 | 3 | 0 | Ac-Ala-Ala-Ala-D-Phe-Arg-Cys-Trp-NH2 (Ac-AAA[dF]RCW-NH2; not fully specified; printed as Ac-Ala-Ala-Ala-D-Phe-Arg-Cys-Trp-NH2) | 
10 | 2 | 13 | 0 | 3 | Tic-D-Phe(4′-Cl)-Gln-Cys-NH2 | 
11 | 59 | 71 | 21 | 0 | Aic-D-Phe-Arg-Cys-Trp-NH2 | 
12 | 11 | 68 | 15 | 3 | Nal 1′-D-Phe-Arg-Trp-Cys-NH2 ([1Nal][dF]RWC-NH2; also: metal complex) | 
13 | 45 | 90 | 88 | 71 | Tic-D-Phe(4′-Cl)-Arg-Trp-Cys-NH2 | 
14 | 23 | 14 | 0 | 7 | 1-amino-1-cyclopentane carboxyl-D-Phe-Arg-Trp-Cys-NH2 ([Ac5c][dF]RWC-NH2; N-terminus assumed; SMILES N=C(N)NCCC[C@H](NC(=O)[C@@H](Cc1ccccc1)NC(=O)C1(N)CCCC1)C(=O)N[C@@H](Cc1c[nH]c2ccccc12)C(=O)N[C@@H](CS)C(N)=O) | 
15 | 75 | 50 | 16 | 2 | 3′-Phenylpropionyl-His-D-Phe-Arg-Cys-Trp-NH2 (Hydrocinnamoyl-H[dF]RCW-NH2; not fully specified; printed as 3′-Phenylpropionyl-His-D-Phe-Arg-Cys-Trp-NH2) | 
16 | 14 | 95 | 96 | 69 | NH2(CH2)6CO-Ser(Bzl)-D-Nal 2′-Arg-Trp-Cys-NH2 | 
17 | 61 | 9 | 0 | 0 | Ac-Ala-His-D-Phe-Arg-Cys-Trp-NH2 ({Ac-Ala-H2N}-[dF]RCW-NH2; not fully specified; printed as Ac-Ala-His-D-Phe-Arg-Cys-Trp-NH2) | 
